Results as given in patent publication US6756401B2, “Compositions and methods for treating osteoporosis and lowering cholesterol” (Pfizer Inc., priority 2000, dated 2004).

Key:
OVX rats [1] = experiment: Ovariectomized rat model: femur BMD by dual-energy X-ray absorptiometry; format: in vivo; details: 4 weeks
Excerpt: (§1) In women, estrogen deficiency during the menopause results in increased bone turnover leading to bone loss. Ovariectomy in rats produces estrogen deficiency and increased bone turnover leading to trabecular bone loss similar to that observed in post-menopausal women (Kalu, D. N., Bone and Mineral 1991 ;15:175; Frost, H. M., Jee W. S. S., Bone and Mineral 1992;18:227; Wronski, T. J., Yen, C-F, Cells Materials 1991;(suppl. 1):69). The OVX rat is thus an appropriate model to evaluate compounds for the prevention and treatment of post-menopausal osteoporosis. The ability of PPTN to inhibit estrogen deficiency bone loss was assessed in 5-month-old OVX rats, since ovariectomy causes significant bone loss in the lumbar vertebrae, proximal tibia, and distal femoral metaphyses (Ke, H. Z., et al., Endocrin 1995;136:2435; Chen, H. K., et al., J Bone Miner Res 1995;10:1256).
(§2) Five-month-old OVX female rats were treated with PPTN at oral doses of 0.733, 7.33, 73.3, and 733 μg/kg/day, or 17α-ethynyl estradiol (EE) at 30 μg/kg/day (10 rats per subgroup) daily for 4 weeks. The oral treatment began 1 day after surgery. Groups of vehicle-treated sham rats (n=10) and vehicle-treated OVX rats (n=10) served as controls. Calcein at 10 mg/kg was injected s.c. to all rats 12 and 2 days before necropsy as a fluorochrome bone marker to measure bone dynamic histomorphometric parameters. The effects of PPTN on the following end points were determined: (a) serum osteocalcin, a biochemical marker of bone turnover, (b) bone mineral density of lumbar vertebrae and distal femoral metaphyses, (c) bone histomorphometry of fifth lumbar vertebral body and proximal tibial metaphyses.
Using dual-energy X-ray absorptiometry, the right femur of each rat was scanned ex vivo. Bone mineral density (BMD) of the distal femoral metaphyses (second 0.5 cm from the distal end of femur) and the proximal femur (the first 0.5 cm from the proximal end of femur, which contains the femoral head, neck, and greater trochanter) was determined.

OVX rats [2] = experiment: Ovariectomized rat model: serum osteocalcin by radioimmunoassay; format: in vivo; details: daily for 4 weeks
Excerpt: as §1
Five-month-old OVX female rats were treated with PPTN at oral doses of 0.733, 7.33, 73.3, and 733 μg/kg/day, or 17α-ethynyl estradiol (EE) at 30 μg/kg/day (10 rats per subgroup) daily for 4 weeks. […] The effects of PPTN on the following end points were determined: (a) serum osteocalcin, a biochemical marker of bone turnover, (b) bone mineral density of lumbar vertebrae and distal femoral metaphyses, (c) bone histomorphometry of fifth lumbar vertebral body and proximal tibial metaphyses. […]

OVX rats [3] = experiment: Ovariectomized rat model: histomorphometry of proximal tibial metaphyses; format: in vivo; details: 4 weeks
Excerpt: as §1, §2
In order to determine the effect of PPTN on long bone metaphyses, histomorphometric analyses were performed on the proximal tibiae.

OVX rats [4] = experiment: Ovariectomized rat model: bone histomorphometry of fifth lumbar vertebral body; format: in vivo; details: 4 weeks
Excerpt: as §1, §2
In order to understand the cellular mechanism of bone-protective effects of PPTN at the tissue level, bone histomorphometric methods were used to determine the effects of PPTN on cancellous bone of the fifth lumbar vertebral body in OVX rats. Ovariectomy caused significant decreases in trabecular bone volume (trabecular bone area divided by marrow space area, expressed as percent) and trabecular number, and a significant increase in trabecular separation of the fifth lumbar vertebral body.

OVX rats [5] = experiment: Ovariectomized rat model: lumbar vertebrae BMD by dual-energy X-ray absorptiometry; format: in vivo; details: 4 weeks
Excerpt: as §1, §2
The first to the sixth lumbar vertebrae from each rat were removed during necropsy. These were then scanned ex vivo using dual-energy X-ray absorptiometry. The scan images were analyzed, and bone area, bone mineral content (BMC), and bone mineral density (BMD) of whole lumbar vertebrae (WLV), and LV1 through LV6 were determined. […] The changes in BMC were similar to those observed in BMD. […]

MDA-MB-231 cells = experiment: Inhibition of in vitro human breast tumor cell growth, ER-negative cells; format: cell-based; details: MDA-MB-231 (ER-negative), 6 days incubation, direct cell counts
Method: The in vitro antiproliferative effects of (−)-cis-6-phenyl-5-[4-(2-pyrrolidin-1-yl-ethoxy)-phenyl]-5,6,7,8-tetrahydro-naphthalene-2-ol (PPTN) were tested using two types of human breast cancer cell lines: first, MCF-7 cells, which contain ER as well as progesterone receptors (PgR), and second, MDA-MB-231 cells, which lack ER and PgR, and enable the determination of an effect that is independent of the ER mechanism. The effect of PPTN on the growth of these different cell lines was determined by incubation of the cells with various compound concentrations for 6 days.
The antiproliferative effects were then determined by direct cell counts. PPTN inhibited the growth of the ER-positive cell line MCF-7.

[6] = PPTN at doses ≧7.33 μg/kg/day oral
[7] = PPTN at 7.33, 73.3, or 733 μg/kg/day oral

C#C[C@]1(O)CC[C@H]2[C@@H]3CCc4cc(O)ccc4[C@H]3CC[C@@]21C [EE, 17α-ethynyl estradiol, reference compound]
decrease in BMD of distal femoral metaphyses after ovariectomy (OVX rats [1]; EE 30 μg/kg/day oral): prevented the decrease | proximal femoral BMD (OVX rats [1]; EE 30 μg/kg/day oral): had no effect | increase in serum osteocalcin concentration after ovariectomy (OVX rats [2]; EE 30 μg/kg/day oral): completely prevented | bone turnover rate in proximal tibial trabecular bone (OVX rats [3]; EE 30 μg/kg/day oral): did not differ from sham controls | osteoclast number per millimeter of bone surface compared with both sham and OVX controls (OVX rats [3]; EE 30 μg/kg/day oral): significantly decreased | percent osteoclast surface compared with both sham and OVX controls (OVX rats [3]; EE 30 μg/kg/day oral): significantly decreased | bone turnover rate, lumbar vertebral body (OVX rats [4]; EE 30 μg/kg/day oral): did not differ from sham controls | ovariectomy-induced changes in trabecular bone volume, trabecular number and trabecular separation of fifth lumbar vertebral body (OVX rats [4]; EE 30 μg/kg/day oral): completely prevented | ovariectomy-induced increase in bone formation rate (BFR) (OVX rats [4]; EE 30 μg/kg/day oral): inhibited this increase | percent eroded surface (index of osteoclastic bone resorption) compared with sham controls (OVX rats [4]; EE 30 μg/kg/day oral): significantly decreased | trabecular number of fifth lumbar vertebral body compared with sham controls (OVX rats [4]; EE 30 μg/kg/day oral): significantly increased | decrease in lumbar vertebral BMD after ovariectomy (OVX rats [5]; EE 30 μg/kg/day oral): completely prevented the decrease

Oc1ccc2c(c1)CC[C@H](c1ccccc1)[C@@H]2c1ccc(OCCN2CCCC2)cc1 [PPTN, (−)-cis-6-phenyl-5-[4-(2-pyrrolidin-1-yl-ethoxy)-phenyl]-5,6,7,8-tetrahydro-naphthalene-2-ol]
BMD of distal femoral metaphyses and proximal femur (OVX rats [1]; PPTN at 0.733 or 7.33 μg/kg/day oral): did not differ from OVX controls | decreases in BMD of distal femoral metaphyses and proximal femur (OVX rats [1]; PPTN at both 73.3 and 733 μg/kg/day oral): completely prevented the decreases | increase in serum osteocalcin concentration after ovariectomy (OVX rats [2]; [6]): completely prevented | percent osteoclast surface compared with OVX controls (OVX rats [3]; PPTN at 0.733 μg/kg/day oral): decreased significantly | prevention of bone loss in proximal tibiae (OVX rats [3]; PPTN at 0.733 μg/kg/day oral): failed to do so | proximal tibial trabecular bone volume (OVX rats [3]; PPTN at 0.733 μg/kg/day oral): no significant effect | osteoclast number per millimeter of bone surface compared with both sham and OVX controls (OVX rats [3]; [7]): significantly decreased | percent osteoclast surface compared with both sham and OVX controls (OVX rats [3]; [7]): significantly decreased | bone turnover rate in proximal tibial trabecular bone (OVX rats [3]; PPTN at doses of 7.33 to 733 μg/kg/day oral): did not differ from sham controls | proximal tibial trabecular bone volume compared with OVX controls (OVX rats [3]; [6]): significantly greater | inhibition of cell proliferation (MDA-MB-231 cells): did not inhibit cell proliferation | ED50 in preserving lumbar vertebral cancellous bone mass and structure (OVX rats [4]; OVX rats, oral, lumbar vertebrae): less than 0.733 μg/kg/day | bone loss in lumbar vertebrae (OVX rats [4]; PPTN at 0.733 μg/kg/day oral): completely prevented bone loss | trabecular number of fifth lumbar vertebral body compared with sham controls (OVX rats [4]; PPTN at 73.3 or 733 μg/kg/day oral): significantly increased | bone turnover rate, lumbar vertebral body (OVX rats [4]; PPTN at all dose levels, oral): did not differ from sham controls | ovariectomy-induced increase in bone formation rate (BFR) (OVX rats [4]; PPTN at all dose levels, oral): inhibited this increase | percent eroded surface (index of osteoclastic bone resorption) compared with sham controls (OVX rats [4]; PPTN at all dose levels, oral): significantly decreased | ovariectomy-induced changes in trabecular bone volume, trabecular number and trabecular separation of fifth lumbar vertebral body (OVX rats [4]; all doses of PPTN (0.733 to 733 μg/kg/day oral)): completely prevented | lumbar vertebral BMD compared with both sham and OVX controls (OVX rats [5]; PPTN 73.3 μg/kg/day oral): increased significantly | decrease in lumbar vertebral BMD after ovariectomy (OVX rats [5]; PPTN at all dose levels (0.733 to 733 μg/kg/day oral)): completely prevented the decrease
